Measurements reported in US10519177B2, “Heterocyclic compounds and uses thereof” (Plexxikon Inc., priority 2013, dated 2019).
Like-named read-outs stand apart in the source and are kept apart here.

Tests used:
MV-4-11 cells = test: Oncology cell growth assay MV-4-11 (CellTiter Glo); type: cell-based; settings: Homo sapiens, MV4-11, 72 h, read-out: Cell activity (IC50 μM) MV-4-11 3d-Growth
Outline: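 MV-4-11 AML cells (MLL-AF4), 3000 per well, exposed to 8-point 1:3 compound titration from 10 μM top concentration (0.2% DMSO) for 72 h. Viability by CellTiter Glo luminescence, normalized to DMSO controls; pIC50 from four-parameter curve fit.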

BRD4-BD12 (1-477) = BRD4-BD12 (1-477) (Homo sapiens (Human), UniProt O60885); test: Alphascreen binding assay BRD4-BD12; settings: BRD4(1 2) H4; read-out: Biochemical activity (IC50 μM) BRD4(1 2) H4
Outline: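 First, compound was preincubated 1 h at room temperature with the His-tagged BRD4 protein (BD1 44-164 or tandem BD12 1-477) and acetylated H4 peptide. Next, donor and acceptor beads were added at 7.5 μg/ml final. After 30 min, AlphaScreen emission was recorded.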

bromodomain = test: at least one of the bromodomain cell assays of Example 57; type: cell-based; settings: at least one of the bromodomain cell assays described in Example 57; read-out: IC50 in at least one of the bromodomain cell assays

| SMILES | IC50 (MV-4-11 cells) [µM] | IC50 (BRD4-BD12 (1-477)) [µM] | IC50 (bromodomain) [nM] | IC50 (MV-4-11 cells; MV-4-11, 3d growth) [µM] |
| --- | --- | --- | --- | --- |
| Cc1noc(C)c1-c1cnc2c(-c3ccc(O)nc3)cn(CC3CCC(F)(F)CC3)c2c1 [P-0402, 5-[1-[(4,4-difluorocyclohexyl)methyl]-6-(3,5-dimethylisoxazol-4-yl)pyrrolo[3,2-b]pyridin-3-yl]pyridin-2-ol] | < 1 | < 1 | < 10000 |  |
| COC(=O)c1ccc(-c2cn(Cc3ccccn3)c3cc(-c4c(C)noc4C)cnc23)cc1 [P-0435, methyl 4-[6-(3,5-dimethylisoxazol-4-yl)-1-(2-pyridylmethyl)pyrrolo[3,2-b]pyridin-3-yl]benzoate] |  | < 1 | < 10000 | < 1 |
| Cc1noc(C)c1-c1cnc2c(-c3ccc(NC(N)=O)cc3)cn(CC3(F)CCCCC3)c2c1 [P-0521, [4-[6-(3,5-dimethylisoxazol-4-yl)-1-[(1-fluorocyclohexyl)methyl]pyrrolo[3,2-b]pyridin-3-yl]phenyl]urea] |  | < 1 | < 10000 | < 1 |
| Cc1noc(C)c1-c1cnc2c(-c3ccc(CC(=O)O)cc3)cn(CC3CCCC3)c2c1 [P-0591, 2-[4-[1-(cyclopentylmethyl)-6-(3,5-dimethylisoxazol-4-yl)pyrrolo[3,2-b]pyridin-3-yl]phenyl]acetic acid] |  | < 1 | < 10000 | < 1 |
| Cc1nnn(C)c1-c1cnc2c(-c3cnn(C(F)F)c3)cn(CC3CCC(F)(F)CC3)c2c1 [P-0357, 1-[(4,4-difluorocyclohexyl)methyl]-3-[1-(difluoromethyl)pyrazol-4-yl]-6-(3,5-dimethyltriazol-4-yl)pyrrolo[3,2-b]pyridine] | < 1 | < 1 | < 10000 |  |
| Cc1noc(C)c1-c1cnc2c(-c3cnc(C4CC4)nc3)cn(CC3CCC(F)(F)CC3)c2c1 [P-0405, 4-[3-(2-cyclopropylpyrimidin-5-yl)-1-[(4,4-difluorocyclohexyl)methyl]pyrrolo[3,2-b]pyridin-6-yl]-3,5-dimethyl-isoxazole] | < 1 | < 1 | < 10000 |  |
| Cc1noc(C)c1-c1cnc2c(-c3ccc([N+](=O)[O-])nc3)cn(CC3CCCCC3)c2c1 [P-0710, 4-[1-(cyclohexylmethyl)-3-(6-nitro-3-pyridyl)pyrrolo[3,2-b]pyridin-6-yl]-3,5-dimethyl-isoxazole] |  | < 1 | < 10000 | < 1 |
| CNC(=O)c1ccc(-c2cn(CC3CCC(F)(F)CC3)c3cc(-c4c(C)noc4C)cnc23)cc1 [P-0403, 4-[1-[(4,4-difluorocyclohexyl)methyl]-6-(3,5-dimethylisoxazol-4-yl)pyrrolo[3,2-b]pyridin-3-yl]-N-methyl-benzamide] | < 1 | < 1 | < 10000 |  |
| Cc1noc(C)c1-c1cnc2c(-c3ccc(C(C)(C)C(=O)O)cc3)cn(CC3CCC(F)(F)CC3)c2c1 [P-0433, 2-[4-[1-[(4,4-difluorocyclohexyl)methyl]-6-(3,5-dimethylisoxazol-4-yl)pyrrolo[3,2-b]pyridin-3-yl]phenyl]-2-methyl-propanoic acid] |  | < 1 | < 10000 | < 1 |
| Cc1nnn(C)c1-c1cnc2c(-c3cnn(C)c3)cn(CC3(F)CCC(F)(F)CC3)c2c1 [P-0424, 6-(3,5-dimethyltriazol-4-yl)-3-(1-methylpyrazol-4-yl)-1-[(1,4,4-trifluorocyclohexyl)methyl]pyrrolo[3,2-b]pyridine] | < 1 | < 1 | < 10000 |  |
| Cc1cc(-c2cnc3c(-c4cnn(CC(F)(F)F)c4)cn(CC4CCC(F)(F)CC4)c3c2)cn(C)c1=O [P-0541, 5-[1-[(4,4-difluorocyclohexyl)methyl]-3-[1-(2,2,2-trifluoroethyl)pyrazol-4-yl]pyrrolo[3,2-b]pyridin-6-yl]-1,3-dimethyl-pyridin-2-one] |  | < 1 | < 10000 | < 1 |
| CCn1cc(-c2cn(CC3CCC(F)(F)CC3)c3cc(-c4c(C)noc4C)cnc23)cn1 [P-0409, 4-[1-[(4,4-difluorocyclohexyl)methyl]-3-(1-ethylpyrazol-4-yl)pyrrolo[3,2-b]pyridin-6-yl]-3,5-dimethyl-isoxazole] | < 1 | < 1 | < 10000 |  |
| CCNC(=O)Nc1ccc(-c2cn(CC3CCC(F)(F)CC3)c3cc(-c4c(C)noc4C)cnc23)cn1 [P-0584, 1-[5-[1-[(4,4-difluorocyclohexyl)methyl]-6-(3,5-dimethylisoxazol-4-yl)pyrrolo[3,2-b]pyridin-3-yl]-2-pyridyl]-3-ethyl-urea] |  | < 1 | < 10000 | < 1 |
| COC(=O)c1ccc(-c2cn(CC3CCCCCCC3)c3cc(-c4c(C)noc4C)cnc23)cc1 [P-0578, methyl 4-[1-(cyclooctylmethyl)-6-(3,5-dimethylisoxazol-4-yl)pyrrolo[3,2-b]pyridin-3-yl]benzoate] |  | < 1 | < 10000 | 1 to 10 |
| [2H]C([2H])(C1CCC(F)(F)CC1)n1cc(-c2ccc(=O)n(C)c2)c2ncc(-c3c(C)noc3C)cc21 [P-0345, 5-[1-[dideuterio-(4,4-difluorocyclohexyl)methyl]-6-(3,5-dimethylisoxazol-4-yl)pyrrolo[3,2-b]pyridin-3-yl]-1-methyl-pyridin-2-one] | < 1 | < 1 | < 10000 |  |
| CONC(=O)c1ccc(-c2cn(CC3(F)CCCCC3)c3cc(-c4c(C)noc4C)cnc23)cc1 [P-0497, 4-[6-(3,5-dimethylisoxazol-4-yl)-1-[(1-fluorocyclohexyl)methyl]pyrrolo[3,2-b]pyridin-3-yl]-N-methoxy-benzamide] |  | < 1 | < 10000 | < 1 |
| Cc1noc(C)c1-c1cnc2c(-c3ccc(CC(=O)O)cc3)cn(CC3(F)CCCCC3)c2c1 [P-0383, 2-[4-[6-(3,5-dimethylisoxazol-4-yl)-1-[(1-fluorocyclohexyl)methyl]pyrrolo[3,2-b]pyridin-3-yl]phenyl]acetic acid] | < 1 | < 1 | < 10000 |  |
| Cc1noc(C)c1-c1cnc2c(I)cn(C(CC#N)C3CCCC3)c2c1 (stereo not drawn) [P-0251, 3-cyclopentyl-3-[6-(3,5-dimethylisoxazol-4-yl)-3-iodo-pyrrolo[3,2-b]pyridin-1-yl]propanenitrile] | < 1 | < 1 | < 10000 |  |
| Cc1noc(C)c1-c1cnc2c(-c3ccc(=O)n(C)c3)cn(CC3(F)CCCCC3)c2c1 [P-0471, 5-[6-(3,5-dimethylisoxazol-4-yl)-1-[(1-fluorocyclohexyl)methyl]pyrrolo[3,2-b]pyridin-3-yl]-1-methyl-pyridin-2-one] |  | < 1 | < 10000 | < 1 |
| Cc1noc(C)c1-c1cnc2c(-c3cccc(O)c3)cn(CC3(F)CCCCC3)c2c1 [P-0488, 3-[6-(3,5-dimethylisoxazol-4-yl)-1-[(1-fluorocyclohexyl)methyl]pyrrolo[3,2-b]pyridin-3-yl]phenol] |  | < 1 | < 10000 | < 1 |
| COc1ncc(-c2cn(CC3CCC(F)(F)CC3)c3cc(-c4c(C)noc4C)cnc23)cn1 [P-0391, 4-[1-[(4,4-difluorocyclohexyl)methyl]-3-(2-methoxypyrimidin-5-yl)pyrrolo[3,2-b]pyridin-6-yl]-3,5-dimethyl-isoxazole] | < 1 | < 1 | < 10000 |  |
| Cc1noc(C)c1-c1cnc2c(-c3cnc(N)nc3)cn(CC3CCC(F)(F)CC3)c2c1 [P-0396, 5-[1-[(4,4-difluorocyclohexyl)methyl]-6-(3,5-dimethylisoxazol-4-yl)pyrrolo[3,2-b]pyridin-3-yl]pyrimidin-2-amine] | < 1 | < 1 | < 10000 |  |
| Cc1noc(C)c1-c1cnc2c(-c3ccc(O)cc3)cn(CC3(F)CCCCC3)c2c1 [P-0523, 4-[6-(3,5-dimethylisoxazol-4-yl)-1-[(1-fluorocyclohexyl)methyl]pyrrolo[3,2-b]pyridin-3-yl]phenol] |  | < 1 | < 10000 | < 1 |
| Cc1noc(C)c1-c1cnc2c(-c3cnc(N)nc3)cn(CC3(F)CCCCC3)c2c1 [P-0473, 5-[6-(3,5-dimethylisoxazol-4-yl)-1-[(1-fluorocyclohexyl)methyl]pyrrolo[3,2-b]pyridin-3-yl]pyrimidin-2-amine] |  | < 1 | < 10000 | < 1 |
| Cc1noc(C)c1-c1cnc2c(-c3cnn(C)c3)cn(C(c3ccccn3)c3ccccn3)c2c1 [P-0593, 4-[1-[bis(2-pyridyl)methyl]-3-(1-methylpyrazol-4-yl)pyrrolo[3,2-b]pyridin-6-yl]-3,5-dimethyl-isoxazole] |  | < 1 | < 10000 | < 1 |
| Cc1noc(C)c1-c1cnc2c(-c3ccc(C(=O)O)c(O)c3)cn(CC3CCC(F)(F)CC3)c2c1 [P-0487, 4-[1-[(4,4-difluorocyclohexyl)methyl]-6-(3,5-dimethylisoxazol-4-yl)pyrrolo[3,2-b]pyridin-3-yl]-2-hydroxy-benzoic acid] |  | < 1 | < 10000 | < 1 |
| Cc1noc(C)c1-c1cnc2c(-c3ccc(NS(C)(=O)=O)cc3)cn(CC3(F)CCCCC3)c2c1 [P-0495, N-[4-[6-(3,5-dimethylisoxazol-4-yl)-1-[(1-fluorocyclohexyl)methyl]pyrrolo[3,2-b]pyridin-3-yl]phenyl]methanesulfonamide] |  | < 1 | < 10000 | < 1 |
